Experimental data taken from ChEMBL document CHEMBL1201862, “PubChem BioAssay data set” (2004).
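Assay format: 96-well plates, 48-hour exposure. Here, GI50 denotes the concentration required for 50% inhibition of growth.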 The source made the active and inactive calls. Cut-off read from the data, not from the text of the source: active = GI50 up to about 1.1 µM and inactive = higher.

Tests used:
Assay in all cases: NCI-60 cell line screen, 48 h
UACC-62 = system: UACC-62
SW-620 = system: SW-620
SF-268 = system: SF-268
LXFL 529 = system: LXFL 529
M14 = system: M14
OVCAR-5 = system: OVCAR-5
KM12 = system: KM12
HOP-92 = system: HOP-92
CAKI-1 = system: CAKI-1
HT-29 = system: HT-29
NCI-H23 = system: NCI-H23
U-251 = system: U-251
HOP-62 = system: HOP-62
NCI-H522 = system: NCI-H522
HCC 2998 = system: HCC 2998
NCI-H226 = system: NCI-H226
RXF 393 = system: RXF 393
PC-3 = system: PC-3
Hs-578T = system: Hs-578T
DU-145 = system: DU-145

SMILES | GI50 (UACC-62) | GI50 (SW-620) | GI50 (SF-268) | GI50 (LXFL 529) | GI50 (M14) | GI50 (OVCAR-5) | GI50 (KM12) | GI50 (HOP-92) | GI50 (CAKI-1) | GI50 (HT-29) | GI50 (NCI-H23) | GI50 (U-251) | GI50 (HOP-62) | GI50 (NCI-H522) | GI50 (HCC 2998) | GI50 (NCI-H226) | GI50 (RXF 393) | GI50 (PC-3) | GI50 (Hs-578T) | GI50 (DU-145)
COc1ccc(N2C(=O)C(N3C(=O)C=CC3=O)C2C=O)cc1 (centres undefined) | > 100 µM (inactive) | > 100 µM (inactive) | > 100 µM (inactive) | > 100 µM (inactive) | > 100 µM (inactive) | > 100 µM (inactive) | > 100 µM (inactive) | > 100 µM (inactive) | > 100 µM (inactive) | > 100 µM (inactive) | > 100 µM (inactive) | > 100 µM (inactive) | > 100 µM (inactive) | > 100 µM (inactive) | > 100 µM (inactive) | – | – | – | – | –
COc1ccc([C@@]2(O)c3c(ccc(O)c3OC)[C@H]2OC)c(OC)c1 | > 10 µM (inactive) | 46.6 µM (inactive) | 75.9 µM (inactive) | 30.2 µM (inactive) | > 100 µM (inactive) | > 100 µM (inactive) | 39.4 µM (inactive) | 53.6 µM (inactive) | 35.7 µM (inactive) | 37.2 µM (inactive) | 34.6 µM (inactive) | 45.8 µM (inactive) | > 100 µM (inactive) | 28.8 µM (inactive) | 44.2 µM (inactive) | > 100 µM (inactive) | – | – | – | –
O=C(NC1C2CC3CC(C2)CC1C3)c1ccncn1 (centres undefined) | > 100 µM (inactive) | > 100 µM (inactive) | > 100 µM (inactive) | > 100 µM (inactive) | > 100 µM (inactive) | > 100 µM (inactive) | > 100 µM (inactive) | > 100 µM (inactive) | > 100 µM (inactive) | > 100 µM (inactive) | > 100 µM (inactive) | > 100 µM (inactive) | > 100 µM (inactive) | > 100 µM (inactive) | > 100 µM (inactive) | > 100 µM (inactive) | – | – | – | –
COc1ccc(C23c4ccc(OC)cc4CC2(c2ccc([N+](=O)[O-])cc2)Cc2cc(OC)ccc23)cc1 (centres undefined) | > 17.1 µM (inactive) | > 100 µM (inactive) | > 22.3 µM (inactive) | > 54.5 µM (inactive) | > 46.2 µM (inactive) | > 25.9 µM (inactive) | > 35.8 µM (inactive) | > 21.9 µM (inactive) | > 27.2 µM (inactive) | > 23.3 µM (inactive) | > 26.4 µM (inactive) | > 50.1 µM (inactive) | > 14.1 µM (inactive) | > 59.8 µM (inactive) | – | > 57.1 µM (inactive) | – | – | – | –
CCN(CC)CC(=O)N1CCc2c([nH]c3ccccc23)C1c1cccnc1 (centres undefined) | > 100 µM (inactive) | > 100 µM (inactive) | > 100 µM (inactive) | > 100 µM (inactive) | > 100 µM (inactive) | > 100 µM (inactive) | > 100 µM (inactive) | 31.4 µM (inactive) | > 100 µM (inactive) | > 100 µM (inactive) | > 100 µM (inactive) | > 100 µM (inactive) | > 100 µM (inactive) | > 100 µM (inactive) | > 100 µM (inactive) | – | – | – | – | –
Cn1c2cccc3nnc4cccc(c4c32)n1C | > 100 µM (inactive) | > 100 µM (inactive) | > 100 µM (inactive) | > 100 µM (inactive) | > 100 µM (inactive) | > 100 µM (inactive) | > 100 µM (inactive) | > 100 µM (inactive) | 21.2 µM (inactive) | > 100 µM (inactive) | – | > 100 µM (inactive) | – | – | > 100 µM (inactive) | 45.8 µM (inactive) | > 100 µM (inactive) | – | – | –
COc1cccc(C2CC(C)(O)Oc3cc4c(cc32)OCO4)c1 (centres undefined) | 14.4 µM (inactive) | 7.31 µM (inactive) | 30.6 µM (inactive) | – | 12.5 µM (inactive) | 35.8 µM (inactive) | 11.2 µM (inactive) | 26.7 µM (inactive) | 29 µM (inactive) | 7.26 µM (inactive) | 28.1 µM (inactive) | 23.4 µM (inactive) | 21.1 µM (inactive) | 7.21 µM (inactive) | 27.5 µM (inactive) | 17.3 µM (inactive) | 28 µM (inactive) | 25.1 µM (inactive) | 16.4 µM (inactive) | 31.3 µM (inactive)
CC(C)=CCc1c2c(c3occ(-c4ccc(O)c(O)c4)c(=O)c3c1O)C=CC(C)(C)O2 [POMIFERIN] | 3.85 µM (inactive) | 0.714 µM (active) | 1.87 µM (inactive) | – | 1.68 µM (inactive) | 7.82 µM (inactive) | 1.72 µM (inactive) | 2.07 µM (inactive) | 1.55 µM (inactive) | 1.84 µM (inactive) | 1.57 µM (inactive) | 1.48 µM (inactive) | 1.89 µM (inactive) | 0.188 µM (active) | 1.22 µM (inactive) | 16.9 µM (inactive) | 2.39 µM (inactive) | 1.61 µM (inactive) | 1.22 µM (inactive) | 3.47 µM (inactive)
